These results are taken from patent publication US20160367464A1, “METHOD AND COMPOSITION FOR IMPROVING SKIN CONDITIONS COMPRISING HUMAN PLACENTAL LACTOGEN AS AN ACTIVE INGREDIENT” (Regeron, Inc., priority 2012, published 2016).

Common to all, as to assay type: in vivo, mouse
Experiment [1] deals with UVB-irradiated SKH-1 female nude mice. The experiment can be described thus: Wrinkle improving effects in UVB-irradiated SKH-1 hairless nude mice (Donald method). Set-up: key: —: No wrinkle formation; *: Slightly deep and thick wrinkle; **: Slightly to moderately deep and thick wrinkle; ***: Moderately deep and thick wrinkle; ****: Moderately to severely deep and thick wrinkle; *****: Severely deep and thick wrinkle. Particulars: SKH-1 nude mice, U.V. irradiation Yes, 0.1% retinoic acid in 15% EtOH. The method, then:
The 4-week-old SKH-1 female nude mice were purchased from Douyul Biotech, Sungnam, Korea). The animal breeding chambers were kept at 24±0.2° C. and relative humidity at 50±10% in a 12-hr light/12-hr dark cycle. The animals were permitted free access to solid feed (Central Lab. Animal Inc., Seoul, Korea) and water sterilized by irradiation and acclimated for about 2 weeks before divided them into 7 groups by random selection.
In order to induce wrinkle formation on the backside of the nude mice, UVB was irradiated to the mice three times a week for 11 weeks using the VLX-3W stimulator (Vilber Lourmat, Marne la Vallee, France) in the protocol: 30 mJ/cm^2 for the weeks 1 and 2, 40 mJ/cm^2 for the weeks 3 and 4, 50 mJ/cm^2 for the weeks 5 through 9, and 60 mJ/cm^2 for the weeks 10 and 11. […]
The wrinkle-improving effect was evaluated according to the Donald method (Hyun-Seok Kim et. al, Mech. Ageing Dev. 126:1255-61, 2005). […] In the present invention, the effects of Lipo-hPL and other skin-conditioning agents on wrinkle formation were evaluated by observing changes of the thickness and depth of wrinkles before and after treatments.

The test system of experiment [2] is Nc/Nga mice with short term atopic dermatitis. In words: Skin damage score, short term TNCB-induced atopic dermatitis. Particulars: short term (6 weeks); for Overall damage: sum of erythema, edema, erosion, dryness divided by number of animals (3). The method, then:
(§1) Four weeks old male Nc/Nga mice were purchased from Orientbio Inc. (Korea) and bred at 24±2° C. and 50±10% relative humidity under 12 hours light/dark cycles. Animals were subject to 1-week acclimating period prior to the experiments.
First, the dorsal area of Nc/Nga mice was shaved, which was sensitized by applying 5% TNCB 150 µl. Then 1% TNCB solution made in olive oil was applied to the sensitized area once every week for 6 weeks.
(§2) Lipo-hPL (20 μg/ml) was topically applied 5 times per week for 6 weeks (short term) and 13 weeks (long term).
(§3) The skin damage was classified to 4 types as described in the Table 8. Based on the pictures taken every week for the inflamed dorsal area, the severity of the damage was evaluated and scored based on the 4 levels as shown below.

Experiment [3] concerns Nc/Nga mice with long term atopic dermatitis. The experiment can be described thus: Skin damage score, long term TNCB-induced atopic dermatitis. The method, then: as §1
The dorsal area of Nc/Nga mice was shaved, which was sensitized by applying 5% TNCB 150 µl. Then 1% TNCB solution made in olive oil was applied to the sensitized area for total 22 times over the period of 13 weeks.
as §2, §3

Experiment [4] has as its system serum IgE. In words: Serum IgE measurement (ELISA) in Nc/Nga mice with atopic dermatitis. As to conditions: TNCB-treated Nc/Nga mice, short term topical application (FIG. 13), Lipo-hPL 20 μg/ml. The text has this:
Atopic individuals can have up to 10 times the normal level of IgE in their blood, even though this may not be a requirement for symptoms to occur as has been seen in asthmatics with normal IgE levels in their blood—recent research has shown that IgE production can occur locally in the nasal mucosa (Takhar P et al. (2005) J Immunol 174 (8): 5024-32). After the completion of the Lipo-hPL treatment for the induced inflammation, blood was drawn from the great saphenons vein and the serum was obtained by centrifugation. The serum IgE was measured using the IgE ELISA kit (GomaBiotech, Korea).
(An ELISA detects its analyte on a solid surface through an enzyme-linked reagent.)

In experiment [5] the test system is Nc/Nga mice with atopic dermatitis. The experiment can be described thus: Skin thickness measurement on H&E stained slides, Nc/Nga mice with atopic dermatitis. The text has this:
Upon the completion of all necessary treatments, affected areas of the dorsal skin was severed and fixed in 4% formaldehyde and set into a block using paraffin. The paraffin block was cut into 10 um thin slices using microtome, which were set on glass slides followed by stained with hematoxylin and eosin (H&E) before subject to the microscopic observation.
The tissue slides stained with H&E were photographed in order to measure the skin thickness ranging from exoderm, fat layer to the muscle layer using the appropriate software provided for the microscope utilized for the measurement of skin thickness.

Where [6] appears, read: score 0-3 per animal summed over 3 animals, Lipo-hPL 20 μg/ml topical 5 times per week.
[7] abbreviates: long term (13 weeks), scores summed over 2 animals, Lipo-hPL 20 μg/ml topical 5 times per week.

“And” between values parts separate entries of the source, which are not always exact repeats. Equal values may be shown once.

For `CC1=C(/C=C/C(C)=C/C=C/C(C)=C/C(=O)O)C(C)(C)CCC1` [Retinoic acid, retinoic acid], the “Changes in wrinkle depth and thickness” value in experiment [1] (Appendix Table 5, topical 11 weeks, 20 μg/ml Lipo-hPL, 4.1 μg/ml Lipo-his-hPL) is listed as “**”; in experiment [1] (topical 5 times a week for 11 weeks, 20 µg/ml Lipo-hPL, 4 µg/ml Lipo-his-hPL), “**”.
Regarding `C=CC[C@@H]1/C=C(\C)C[C@H](C)C[C@H](OC)[C@H]2O[C@@](O)(C(=O)C(=O)N3CCCC[C@H]3C(=O)O[C@H](/C(C)=C/[C@@H]3CC[C@@H](O)[C@H](OC)C3)[C@H](C)[C@@H](O)CC1=O)[C@H](C)C[C@@H]2OC` [Tacrolimua (FK506), Tacrolimua], in experiment [2] (setting [6]), the Dryness was found to be 3, the Edema was 0, the Erosion is listed as 3 and the Erythema is 3. Also, in experiment [2], the Overall damage turned out to be 3.0. Further, the Overall damage in experiment [2] (listed as FK506) amounted to 3.0±0.3. For the same molecule, in experiment [3] (setting [7]), the Dryness is reported as 3, the Edema is given as 1.5, the Erosion came to 3.5 and the Erythema is recorded as 1.5. Moreover, the Overall damage in experiment [3] (long term (13 weeks), sum of erythema, edema, erosion, dryness divided by number of animals (2)) is 4.75 and 4.8. The “Long term skin damages score” value in experiment [3] (long term, out of 10 as the most severe damage) amounted to 2.4±0.7. In experiment [4], this molecule gave an IgE of 107.1 ng/mL. The “Exodermal thickness of animals treated with TNCB only relative to treated animals” value in experiment [5] was “approximately 10 folds”. In experiment [5] (TNCB-treated Nc/Nga mice, long term topical application (FIG. 16)), the “Average skin thickness (epidermis, dermis and subcutaneous layer)” value is listed as 408.0±23.4 μm.
